Data published in patent US9957271B2, “Substituted bicyclic aza-heterocycles and analogues as sirtuin modulators” (GlaxoSmithKline, LLC, priority 2012, dated 2018).

Legend:
[1] = molecular target: T1, SIRT1 (Homo sapiens, UniProt Q96EB6); assay: Trp mass spectrometry assay of SIRT1 activity; type: biochemical; settings: for Emax: read-out: Trp % Fold Act
T1 sequence (Q96EB6 1-747): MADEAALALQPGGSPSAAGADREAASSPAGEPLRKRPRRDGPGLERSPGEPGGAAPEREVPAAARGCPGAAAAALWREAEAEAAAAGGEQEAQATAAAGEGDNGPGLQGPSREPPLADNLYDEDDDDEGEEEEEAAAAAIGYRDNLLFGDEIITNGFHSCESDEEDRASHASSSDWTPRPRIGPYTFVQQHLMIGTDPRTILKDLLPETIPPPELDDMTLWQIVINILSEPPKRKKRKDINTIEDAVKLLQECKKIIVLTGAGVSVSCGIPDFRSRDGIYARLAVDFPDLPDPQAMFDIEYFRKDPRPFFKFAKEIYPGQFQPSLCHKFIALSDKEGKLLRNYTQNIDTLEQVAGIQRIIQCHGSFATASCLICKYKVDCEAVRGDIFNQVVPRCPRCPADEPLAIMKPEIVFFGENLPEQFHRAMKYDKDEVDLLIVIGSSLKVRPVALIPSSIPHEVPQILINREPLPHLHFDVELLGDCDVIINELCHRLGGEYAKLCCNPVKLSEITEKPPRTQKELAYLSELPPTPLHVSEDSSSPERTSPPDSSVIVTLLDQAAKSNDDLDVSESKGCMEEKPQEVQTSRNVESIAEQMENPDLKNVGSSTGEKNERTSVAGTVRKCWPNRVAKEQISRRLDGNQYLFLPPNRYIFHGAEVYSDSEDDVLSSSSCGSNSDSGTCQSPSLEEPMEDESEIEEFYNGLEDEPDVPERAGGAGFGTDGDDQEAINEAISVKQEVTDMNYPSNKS
In short: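 Activation readout: EC1.5 (concentration raising activity 50% over control) and percent maximum activation, from mass-spec quantitation of OAADPR or deacetylated Trp peptide. Reaction: 0.5 μM acetylated Trp peptide, 120 μM βNAD+, 10 nM bacterially expressed N-His SIRT1, pH 7.5 HEPES buffer with […], 25 min at 25° C.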

[2] = molecular target: T1, SIRT1; assay: TAMRA based mass spectrometry assay of SIRT1 activity; type: biochemical; settings: for Emax: read-out: TAMRA % Fold Act
In short: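 Deacetylation of a biotinylated, TAMRA-tagged p53-based peptide (0.5 μM) by 10 nM His-tagged SIRT1 with 120 μM βNAD+, 25 °C for 25 min, pH 8 Tris-acetate buffer, across a compound concentration range. Quenched by formic acid and read by mass spec as product peptide or OAADPR; activity relative to DMSO reactions, nicotinamide defining maximal inhibition.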

[3] = Trp assay, concentration giving 150% activation of SIRT1
[4] = Trp assay, percent maximum fold activation
[5] = TAMRA assay, concentration giving 150% activation of SIRT1
[6] = TAMRA assay, percent maximum fold activation
[7] = concentration of test compound giving 150% activation of SIRT1, Trp peptide substrate
[8] = percent maximum fold activation of SIRT1, Trp peptide substrate
[9] = concentration of test compound giving 150% activation of SIRT1, TAMRA peptide substrate
[10] = percent maximum fold activation of SIRT1, TAMRA peptide substrate
[11] = Trp peptide substrate, concentration giving 150% activation of SIRT1
[12] = Trp peptide substrate, percent maximum fold activation
[13] = TAMRA peptide substrate, concentration giving 150% activation of SIRT1
[14] = TAMRA peptide substrate, percent maximum fold activation

Row | SMILES | Trp EC1.5 (μM) [1, 3] | Emax [1, 4] | TAMRA EC1.5 (μM) [2, 5] | Emax [2, 6] | Trp EC1.5 [1, 11] | Emax [1, 12] | TAMRA EC1.5 [2, 13] | Emax [2, 14] | other results
1 | O=C(Nc1cnn2ccc(-c3ccccc3C(F)(F)F)nc12)c1cccc(CN2CCOCC2)n1 [Compound 255] | B (EC1.5 1-25 μM) | < 350% | A (EC1.5<1 μM) | ≥ 350% |  |  |  |  | 
2 | Cc1cccc(NC(=O)c2c(C)nc3ccc(-c4ccccc4OC[C@H](O)CO)nn23)n1 [Compound 816] | A (EC1.5<1 μM) | ≥ 350% | A (EC1.5<1 μM) | ≥ 350% |  |  |  |  | 
3 | COc1ccc(NC(=O)c2c(C)nc3ccc(-c4ccccc4C(F)(F)F)nn23)nn1 [Compound 665] | B (EC1.5 1-25 μM) | < 350% | A (EC1.5<1 μM) | ≥ 350% |  |  |  |  | 
4 | O=C(Nc1ccc(F)cn1)c1cnc2ccc(-c3ccccc3C(F)(F)F)nn12 [Compound 110] |  |  |  |  |  |  |  |  | Trp EC1.5 (μM) [1, 7]: B (EC1.5 1-25 μM); Emax [1, 8]: < 350%; TAMRA EC1.5 (μM) [2, 9]: A (EC1.5<1 μM); Emax [2, 10]: ≥ 350%
5 | COc1ccc(NC(=O)c2c(C)nc3ccc(-c4cccc(OC(F)(F)F)c4)nn23)nn1 [Compound 718] | C (EC1.5>25 μM) | < 350% | A (EC1.5<1 μM) | < 350% |  |  |  |  | 
6 | Cc1cc(NC(=O)c2cnc3ccc(-c4ccccc4C(F)(F)F)nn23)ccn1 [Compound 102] |  |  |  |  |  |  |  |  | Trp EC1.5 (μM) [1, 7]: B (EC1.5 1-25 μM); Emax [1, 8]: ≥ 350%; TAMRA EC1.5 (μM) [2, 9]: A (EC1.5<1 μM); Emax [2, 10]: ≥ 350%
7 | O=C(Nc1ccc(F)cn1)c1cnn2ccc(-c3ccccc3C(F)(F)F)nc12 [Compound 518] |  |  |  |  | B (EC1.5 1-25 μM) | < 350% | A (EC1.5<1 μM) | ≥ 350% | 
8 | Cc1cc2ncc(NC(=O)c3cnccn3)n2nc1-c1ccccc1C(F)(F)F [Compound 442] |  |  |  |  | C (EC1.5>25 μM) | < 350% | A (EC1.5<1 μM) | ≥ 350% | 
9 | O=C(Nc1cnc2ccc(-c3ccccc3Cl)nn12)c1cccc(OCC(O)CO)n1 (stereo not drawn) [Compound 309] | A (EC1.5<1 μM) | < 350% | A (EC1.5<1 μM) | ≥ 350% |  |  |  |  | 
10 | Cc1nc2ccc(-c3ccccc3C(F)(F)F)nn2c1C(=O)Nc1ccnn1C(C)(C)C [Compound 672] | B (EC1.5 1-25 μM) | < 350% | B (EC1.5 1-25 μM) | < 350% |  |  |  |  | 
11 | O=C(Nc1cnc2ccc(-c3ccccc3C(F)(F)F)nn12)c1cncc(N2CCOCC2)n1 [Compound 120] |  |  |  |  |  |  |  |  | Trp EC1.5 (μM) [1, 7]: B (EC1.5 1-25 μM); Emax [1, 8]: ≥ 350%; TAMRA EC1.5 (μM) [2, 9]: A (EC1.5<1 μM); Emax [2, 10]: ≥ 350%
12 | Cc1cccc(NC(=O)c2cnc3ccc(-c4ccccc4C(F)(F)F)nn23)n1 [Compound 78] |  |  |  |  |  |  |  |  | Trp EC1.5 (μM) [1, 7]: A (EC1.5<1 μM); Emax [1, 8]: ≥ 350%; TAMRA EC1.5 (μM) [2, 9]: A (EC1.5<1 μM); Emax [2, 10]: ≥ 350%
13 | O=C(Nc1cnccn1)c1cnc2ccc(-c3ccccc3Cl)nn12 [Compound 119] |  |  |  |  |  |  |  |  | Trp EC1.5 (μM) [1, 7]: C (EC1.5>25 μM); Emax [1, 8]: < 350%; TAMRA EC1.5 (μM) [2, 9]: B (EC1.5 1-25 μM); Emax [2, 10]: < 350%
14 | Cc1cc(NC(=O)c2cnc3ccc(-c4ccccc4OCC(O)CO)nn23)cc(C)n1 (stereo not drawn) [Compound 415] |  |  |  |  | B (EC1.5 1-25 μM) | ≥ 350% | A (EC1.5<1 μM) | ≥ 350% | 
15 | COc1ccnc(NC(=O)c2c(C)nc3ccc(-c4ccccc4C(F)(F)F)nn23)c1 [Compound 671] | A (EC1.5<1 μM) | ≥ 350% | A (EC1.5<1 μM) | ≥ 350% |  |  |  |  | 
16 | Cc1cc(C)nc(NC(=O)c2cnc3c(C)cc(-c4ccccc4C(F)(F)F)nn23)c1 [Compound 516] |  |  |  |  | B (EC1.5 1-25 μM) | < 350% | A (EC1.5<1 μM) | ≥ 350% | 
17 | Cc1cnc(NC(=O)c2c(C)nc3ccc(-c4cccc(OC[C@H](O)CO)c4)nn23)s1 [Compound 823] | A (EC1.5<1 μM) | < 350% | A (EC1.5<1 μM) | < 350% |  |  |  |  | 
18 | Cc1nn2ccc(-c3ccccc3C(F)(F)F)nc2c1C(=O)Nc1cccc(N2CCOCC2)n1 [Compound 552] |  |  |  |  | A (EC1.5<1 μM) | ≥ 350% | A (EC1.5<1 μM) | ≥ 350% | 
19 | Cc1cnc(C(=O)Nc2cnn3ccc(-c4ccccc4OC(F)(F)F)nc23)cn1 [Compound 734] | C (EC1.5>25 μM) | < 350% | B (EC1.5 1-25 μM) | ≥ 350% |  |  |  |  | 
20 | Cc1cc2ncc(NC(=O)c3ccncn3)n2nc1-c1ccccc1C(F)(F)F [Compound 443] |  |  |  |  | C (EC1.5>25 μM) | < 350% | A (EC1.5<1 μM) | ≥ 350% | 
21 | O=C(Nc1ccccn1)c1cnc2ccc(-c3ccccc3C(F)F)nn12 [Compound 32] |  |  |  |  |  |  |  |  | Trp EC1.5 (μM) [1, 7]: B (EC1.5 1-25 μM); Emax [1, 8]: < 350%; TAMRA EC1.5 (μM) [2, 9]: B (EC1.5 1-25 μM); Emax [2, 10]: < 350%
22 | COc1cccc(NC(=O)c2c(C)nn3ccc(-c4ccccc4C(F)(F)F)nc23)n1 [Compound 551, N-(6-methoxypyridin-2-yl)-2-methyl-5-(2-(trifluoromethyl)phenyl)pyrazolo[1,5-a]pyrimidine-3-carboxamide] |  |  |  |  | A (EC1.5<1 μM) | ≥ 350% | A (EC1.5<1 μM) | ≥ 350% | 
23 | Cc1cc2ncc(NC(=O)c3cccc(N4CCC4)n3)n2nc1-c1ccccc1C(F)(F)F [Compound 448] |  |  |  |  | B (EC1.5 1-25 μM) | ≥ 350% | A (EC1.5<1 μM) | ≥ 350% | 
24 | Cc1ncccc1NC(=O)c1cnc2ccc(-c3ccccc3C(F)(F)F)nn12 [Compound 113] |  |  |  |  |  |  |  |  | Trp EC1.5 (μM) [1, 7]: B (EC1.5 1-25 μM); Emax [1, 8]: < 350%; TAMRA EC1.5 (μM) [2, 9]: B (EC1.5 1-25 μM); Emax [2, 10]: < 350%
25 | O=C(Nc1ccnc(N2CCOCC2)c1)c1nnc2ccc(-c3ccccc3C(F)F)nn12 [Compound 68] |  |  |  |  |  |  |  |  | Trp EC1.5 (μM) [1, 7]: B (EC1.5 1-25 μM); Emax [1, 8]: < 350%; TAMRA EC1.5 (μM) [2, 9]: B (EC1.5 1-25 μM); Emax [2, 10]: < 350%
26 | Cc1cc(NC(=O)c2c(C)nc3ccc(-c4ccccc4OC[C@H](O)CO)nn23)nc(C)n1 [Compound 818] | B (EC1.5 1-25 μM) | < 350% | A (EC1.5<1 μM) | ≥ 350% |  |  |  |  | 
27 | COc1nccc(NC(=O)c2cnc3ccc(-c4ccccc4OC(F)(F)F)nn23)n1 [Compound 430] |  |  |  |  | A (EC1.5<1 μM) | ≥ 350% | A (EC1.5<1 μM) | ≥ 350% | 
